This note sets out measurements from patent US12593845B2 (priority 2019, dated 2026).

One test has as its system Meloidogyne incognita. The test is described as follows: Efficacy against Meloidogyne incognita. Particulars: 96 h, second-instar larvae (L2), 40 μL of 125 ppm drug solution added to 160 μL suspension per well, 20° C., 4 days, read-out: nematode mortality rate. It is filed as in vivo. Here is the method: (§1) 5 parts by weight of the dihydropyrimidine compound of the present invention, 93.5 parts by weight of N,N-dimethylformamide, and 1.5 parts by weight of polyoxyethylene sorbitan monolaurate (TWEEN® 20) were mixed and dissolved to obtain an emulsion (I) including 5% of an active ingredient.
A suspension containing about 50/0.16 mL second-instar larvae (L2) of Meloidogyne incognita was poured into a 96-well microplate at 160 μL per well. Then, a drug solution prepared by adding water to the emulsion (I) so as to have a concentration of the dihydropyrimidine compound of 125 ppm was poured at 40 μL per well. The plate was left to stand under a 20° C. condition for 4 days.
Mortality was determined, and the nematode mortality rate was calculated. […] The test repeated twice.

The subject of test [1] is wheat brown rust pathogen (Puccinia recondita). The test is described as follows: Wheat brown rust control test. In kind it is in vivo. The note with it: 288 h, 125 ppm drug solution sprayed onto wheat seedlings (Norin 61), lesion area ratio 12 days after inoculation. How it is done: as §1
(§2) The control value was calculated by the following expression. Control value (%)=100−{lesion area ratio in treated group/lesion area ratio in untreated group}×100 [Expression 1]
Water was added to the emulsion (I) such that the concentration of the dihydropyrimidine compound reached 125 ppm to dissolve the emulsion, and a drug solution was obtained. Subsequently, the drug solution was sprayed onto wheat seedlings (variety: “Norin 61”, leaf stage: 1 to 2) cultivated in seedling pots. After air drying, uredospores of a wheat brown rust pathogen (Puccinia recondita) were sprinkled on wheat seedlings sprayed with the drug solution for inoculation (treated group). As a control, wheat seedlings that were not sprayed with the drug solution were inoculated in the same manner as described above (untreated group). The seedlings were left to stand in a greenhouse at 20° C.
On the 12 days after the inoculation, the leaves of the wheat seedlings were visually observed to determine the lesion area ratio, and the control value was calculated.

In test [2] the test system is wheat powdery mildew pathogen (Erysiphe graminis f. sp. tritici). The test is described as follows: Wheat powdery mildew control test. It is filed as in vivo. Particulars: Blumeria graminis, 144 h; 125 ppm drug solution sprayed onto wheat seedlings (Chihoku); lesion area ratio 6 days after inoculation. In a few lines: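 Compound formulated as a 5% DMF/Tween 20 emulsion was diluted in water to 125 ppm and sprayed onto 1-2-leaf wheat seedlings (cv. Chihoku). Once dry, seedlings were inoculated with Erysiphe graminis f. sp. tritici conidia and kept in a greenhouse at 20 °C. Lesion area ratio was scored visually 6 days later, giving control value (%) relative to untreated inoculated plants.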

A further test concerns Aspergillus niger. The test is described as follows: Antimicrobial test against Aspergillus niger. In kind it is cell-based. The note with it: 96 h, Vogel medium, 25° C., 4 days in the dark, turbidity at 405 nm, read-out: growth inhibition rate. An outline of the steps:
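Growth inhibition (%) derived from 405 nm turbidity versus untreated control. Compound, dissolved in DMSO, tested at 25 ppm on spores in Vogel medium; cultures kept dark, 25° C., 4 days.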

Test [3] relates to wheat powdery mildew pathogen (Erysiphe graminis f. sp. tritici). The test is described as follows: Wheat powdery mildew soil irrigation treatment test. It is filed as in vivo. The note with it: Blumeria graminis, 168 h; soil irrigation with 10 ml of 100 ppm drug solution per pot, wheat (Chihoku); inoculation after 8 to 10 days; lesion area ratio 7 days after inoculation. Here is the method: as §1, §2
Pots (5.5 cm×5.5 cm) in which wheat seeds (variety: “Chihoku”) were disseminated were irrigated with 10 ml of a drug solution prepared by adding water to the emulsion (I) so as to have a concentration of the dihydropyrimidine compound of 100 ppm. After 8 to 10 days, conidiospores of a wheat powdery mildew pathogen (Erysiphe graminis f. sp. tritici) were sprinkled thereon for inoculation (treated group). As a control, wheat seedlings that were not treated with the drug were inoculated in the same manner as described above (untreated group). The seedlings were left to stand in a greenhouse at 20° C.
On the 7 days after the inoculation, the leaves of the wheat seedlings were visually observed to determine the lesion area ratio, and the control value was calculated.

The subject of test [4] is cucumber gray mold pathogen (Botrytis cinerea). The test is described as follows: Cucumber gray mold control test. It is filed as in vivo. Particulars: 125 ppm drug solution sprayed onto cucumber seedlings (cotyledon stage); lesion area ratio 4 days after inoculation. Here is the method: as §1, §2
Water was added to the emulsion (I) such that the concentration of the dihydropyrimidine compound reached 125 ppm to dissolve the emulsion, and a drug solution was obtained. Subsequently, the drug solution was sprayed onto cucumber seedlings (variety: “creeping” type, cotyledon stage) cultivated in seedling pots. After air drying, a suspension of conidiospores of a cucumber gray mold pathogen (Botrytis cinerea) was dropped thereon for inoculation (treated group). As a control, cucumber seedlings that were not sprayed with the drug solution were inoculated by dropping in the same manner as described above (untreated group). The seedlings were left to stand in a humidified room at 20° C.
On the 4 days after the inoculation, the leaves of the cucumber seedlings were visually observed to determine the lesion area ratio, and the control value was calculated.

Test [5] concerns wheat powdery mildew pathogen (Erysiphe graminis f. sp. tritici). The test is described as follows: Wheat powdery mildew seed treatment test. It is filed as in vivo. Particulars: Blumeria graminis, 168 h; seed treatment 100 g/100 kg wheat seeds (Chihoku); inoculation after 8 to 10 days; lesion area ratio 7 days after inoculation. An outline of the steps:
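Wheat seeds (cv. Chihoku) were treated with a 5% emulsion at 100 g compound/100 kg seed, sown, and inoculated with conidiospores after 8 to 10 days. Plants were kept in a greenhouse at 20 °C. Lesion area was scored visually 7 days post-inoculation, and control value was computed relative to untreated inoculated seedlings.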

Test [6] deals with apple scab pathogen (Venturia inaequalis). The test is described as follows: Apple scab control test. It is filed as in vivo. The note with it: 336 h, 125 ppm drug solution sprayed onto apple seedlings (Orin), lesion area ratio 2 weeks after inoculation. In a few lines:
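Compound emulsion diluted in water to 125 ppm and sprayed on 3-4 leaf 'Orin' apple seedlings, which were inoculated with V. inaequalis conidiospores after drying and held humidified at 20° C, 12 h light/dark. Lesion area ratio scored 2 weeks post-inoculation; control value computed relative to unsprayed inoculated plants.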

Consider `C=C1CCN(C(=O)C(C)n2c(=O)c(C=NOC(C)C)cn(CC(OCCC#N)c3cc(F)ccc3OC)c2=O)CC1` (centres unmarked) [A-64], for which the mortality – broadly, the percentage killed – at 125 ppm in the test on Meloidogyne incognita is ≥ 60%. Further, the pest or weed control (as a rule, the degree to which the test organism was suppressed or injured, in per cent) at 125 ppm in test [1] is ≥ 75%.
With `COc1ccc(F)cc1C(O)Cn1cc(/C(C)=N/OC(C)C)c(=O)n(C[C@H](C)NC(=O)C(C)C)c1=O` (stereo partly drawn) [A-75, N-((2S)-1-(3-(2-(5-fluoro-2-methoxyphenyl)-2-hydroxyethyl)-5-((E)-1-(isopropoxyimino)ethyl)-2,6-dioxo-3,6-dihydropyrimidin-1(2H)-yl)propan-2-yl)isobutyramide], the pest or weed control at 125 ppm in test [2] and in test [6] was ≥ 75% each time. The inhibition (in general, how much of the control response was suppressed) at 25 ppm in the test on Aspergillus niger was ≥ 50%. Besides, the pest or weed control at 100 ppm in test [3] is ≥ 75%. In addition, the Control value in test [4] was ≥ 75%. Besides, the pest or weed control at 100 g/100 kg seed in test [5] is ≥ 75%.
